# In patent publication US6476187B1, “Methods and reagents for discovering and using mammalian melanocortin receptor agonists and antagonists to modulate feeding behavior in animals” (Oregon Health & Sciences University, priority 1992, dated 2002):
# Residues, ends and D or L forms follow the SMILES beside them.
# B1: agouti peptide: murine agouti peptide produced using a baculovirus system, approximately 60% pure (protein)
# chain: HLALEETLGDDRSLRSNSSMNSLDFSSVSIVALNKKSKKISRKEAEKRKRSSKKKASMKKVARPPPPSPCVATRDSCKPPAPACCDPCASCQCRFFGSACTCRVLNPNC
# Key:
# [1] = target: T1, murine αMSH receptor (MC-1) (Mus musculus, UniProt Q01727); assay: intracellular cAMP accumulation in 293 cells transfected with mouse αMSH receptor; type: cell-based; conditions: 293 cells expressing murine αMSH receptor
# T1 construct: excising the entire coding region of the αMSH^R (MC-1) cDNA insert comprising a 2.1 kb fragment; expressed in transfected cells; host or cells: human 293 cells, pcDNAI/neo, G418-selected
# Protocol: After transfection, cells were cultured in DMEM media supplemented with 10% calf serum in a 3% CO2 atmosphere at 37° C. Selection was performed with neomycin (G418; GIBCO) at a concentration of 1000 μg/mL; selection was started 72 hr after transfection and continued for 3 weeks.
# Following hormone treatment, the cells were washed twice with phosphate buffered saline and intracellular cAMP extracted by lysing the cells with 1 mL of 60% ethanol.
# rat MC3-R = target: T2, rat MC3-R (Rattus norvegicus, UniProt P32244); assay: intracellular cAMP production in 293 cells expressing MC3-R; type: cell-based; conditions: 1 h at 37° C.
# T2 construct: The entire coding region of the MC-3 receptor cDNA insert; expressed in transfected cells; host or cells: human 293 cells, pcDNA/neo I, G418-selected
# Protocol: cAMP production assays as described above were also used to analyze expression of MC3-R in cells transfected with the expression vectors described herein as follows. […] Following hormone treatment, the cells were washed twice with phosphate buffered saline and intracellular cAMP extracted by lysing the cells with 1 mL of 60% ethanol.
# rat MC-3 receptor = target: T3, rat MC-3 receptor (Rattus norvegicus, UniProt P32244); assay: competition of [Nle4,D-Phe7]α-MSH binding to rat MC-3 receptor; conditions: peptide about 60% pure; IC50 could not be determined
# T3 construct: The entire coding region of the MC-3 receptor cDNA insert; expressed in transfected cells; host or cells: human 293 cells, pcDNA/neo I, G418-selected
# From the text: […]. In these experiments, murine agouti peptide was produced using a baculovirus system as described by Lu et al., (1994, Nature 371: 799-802), with the modification that the agouti peptide was purified from baculovirus supernatants by 0.6M NaCl step elution from an EconoS cation exchange column (BioRad). Agouti peptide used in these assays was approximately 60% pure.
# human MC-4-R = human MC-4-R (Homo sapiens, UniProt P32245); conditions: Lu et al., 1994; cited from earlier work
# human MC-4-R, sequence (P32245 whole entry): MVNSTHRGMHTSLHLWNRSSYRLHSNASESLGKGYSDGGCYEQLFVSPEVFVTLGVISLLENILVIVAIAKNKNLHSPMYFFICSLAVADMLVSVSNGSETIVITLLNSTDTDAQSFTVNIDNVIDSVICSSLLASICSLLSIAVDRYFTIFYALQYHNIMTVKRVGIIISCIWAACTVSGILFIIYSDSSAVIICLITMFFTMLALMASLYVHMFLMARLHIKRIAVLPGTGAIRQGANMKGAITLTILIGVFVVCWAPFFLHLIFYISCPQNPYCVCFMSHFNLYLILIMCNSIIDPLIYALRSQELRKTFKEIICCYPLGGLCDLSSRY
# T1 sequence (Q01727 whole entry, the tested form may be a part): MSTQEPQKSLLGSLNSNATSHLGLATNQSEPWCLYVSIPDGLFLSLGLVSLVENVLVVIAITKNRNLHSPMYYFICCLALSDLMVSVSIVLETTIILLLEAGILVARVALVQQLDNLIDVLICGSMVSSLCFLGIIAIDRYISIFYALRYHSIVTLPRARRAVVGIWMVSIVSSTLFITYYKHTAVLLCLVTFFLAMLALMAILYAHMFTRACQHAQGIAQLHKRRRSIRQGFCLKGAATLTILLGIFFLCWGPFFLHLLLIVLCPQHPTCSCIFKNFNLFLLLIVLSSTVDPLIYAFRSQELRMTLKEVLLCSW
# T3 sequence (P32244 whole entry): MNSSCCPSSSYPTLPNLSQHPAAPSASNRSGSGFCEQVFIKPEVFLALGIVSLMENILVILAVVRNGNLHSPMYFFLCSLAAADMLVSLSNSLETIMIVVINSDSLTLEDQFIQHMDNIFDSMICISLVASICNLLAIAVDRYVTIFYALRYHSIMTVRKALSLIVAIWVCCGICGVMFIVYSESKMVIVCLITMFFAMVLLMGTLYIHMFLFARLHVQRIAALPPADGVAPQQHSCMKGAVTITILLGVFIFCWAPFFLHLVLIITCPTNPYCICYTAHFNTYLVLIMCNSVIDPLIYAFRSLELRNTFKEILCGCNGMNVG
# T2 sequence (P32244 whole entry): as above
molecule,measurement,setting,value
CSCC[C@H](NC(=O)[C@H](CCCNC(=N)N)NC(=O)[C@H](Cc1ccc(O)cc1)NC(=O)[C@@H]1CCCN1C(=O)CNC(=O)[C@H](CCC(=O)O)NC(=O)[C@H](CC(=O)O)NC(=O)[C@H](CCCCN)NC(=O)[C@H](CCCCN)NC(=O)[C@H](CCC(=O)O)NC(=O)[C@H](C)N)C(=O)N[C@@H](CCC(=O)O)C(=O)N[C@@H](Cc1c[nH]cn1)C(=O)N[C@@H](Cc1ccccc1)C(=O)N[C@@H](CCCNC(=N)N)C(=O)N[C@@H](Cc1c[nH]c2ccccc12)C(=O)NCC(=O)N[C@@H](CO)C(=O)N1CCC[C@H]1C(=O)N1CCC[C@H]1C(=O)N[C@@H](CCCCN)C(=O)N[C@@H](CC(=O)O)C(=O)O [βMSH],EC50 (intracellular cAMP),[1]; 45 min at 37° C.,comparable to αMSH
CSCC[C@H](NC(=O)[C@@H](NC(=O)[C@@H](N)Cc1ccc(O)cc1)C(C)C)C(=O)NCC(=O)N[C@@H](Cc1c[nH]cn1)C(=O)N[C@@H](Cc1ccccc1)C(=O)N[C@@H](CCCNC(=N)N)C(=O)N[C@@H](Cc1c[nH]c2ccccc12)C(=O)N[C@@H](CC(=O)O)C(=O)N[C@@H](CCCNC(=N)N)C(=O)N[C@@H](Cc1ccccc1)C(=O)NCC(=O)N[C@@H](CCCNC(=N)N)C(=O)N[C@@H](CCCNC(=N)N)C(=O)N[C@@H](CC(N)=O)C(=O)NCC(=O)N[C@@H](CO)C(=O)N[C@@H](CO)C(=O)N[C@@H](CO)C(=O)N[C@@H](CO)C(=O)NCC(=O)N[C@H](C(=O)NCC(=O)NCC(=O)N[C@@H](C)C(=O)N[C@@H](C)C(=O)N[C@@H](CCC(N)=O)C(=O)O)C(C)C [γ3-MSH] (H-YVMGHFRWDRFGRRNGSSSSGVGGAAQ-OH; N-terminus and C-terminus assumed),EC50,rat MC3-R,6 nM
"CSCC[C@H](NC(=O)[C@@H](NC(=O)[C@@H](N)Cc1ccc(O)cc1)C(C)C)C(=O)NCC(=O)N[C@@H](Cc1c[nH]cn1)C(=O)N[C@@H](Cc1ccccc1)C(=O)N[C@@H](CCCNC(=N)N)C(=O)N[C@@H](Cc1c[nH]c2ccccc12)C(=O)N[C@@H](CC(=O)O)C(=O)N[C@@H](CCCNC(=N)N)C(=O)N[C@@H](Cc1ccccc1)C(N)=O [γ-MSH, γ-melanocyte stimulating hormone]",activity in elevating intracellular cAMP,[1],little or no activity
B1,"competition of [Nle4,D-Phe7]α-MSH binding",rat MC-3 receptor,Specific competition
same,competition of αMSH activation,human MC-4-R,Specific competition
